Experiments:
[1] = test system: cisplatin-induced numbness; assay: Adhesive removal test (ART) for numbness; format: in vivo, mice; conditions: treatment starting after two rounds of cisplatin; tested in week 5
Experimental: To quantify signs of cisplatin-induced pain, the von Frey test was used (see below) which measures the decrease in threshold to induce a withdrawal response to a mechanical stimulus (hyperalgesia, one of the characteristics of CIPN). To assess cisplatin-induced numbness, the adhesive removal test (ART) was used. The time it took for the mouse to have a behavioral response to the patch (i.e. shaking or attempted removal) was recorded as a measure of sensory deficit or numbness. To determine if behavioral changes were due to altered general activity or motor function, the locomotor activity (LMA) test and the rotarod test was used. For LMA mice were placed in an open-field testing cage and movement was measured for 5 minutes. For the rotarod, mice were trained for two days and then tested on the rotarod (with increasing speeds) for 5 minutes. Time on the rotarod was recorded. […] The time it took for the mouse to display a behavioral response to the patch (i.e. shaking or attempted removal) was recorded. […]

[2] = test system: motor function; assay: Rotarod test; format: in vivo, mice; conditions: in combination with cisplatin
Experimental: To quantify signs of cisplatin-induced pain, the von Frey test was used (see below) which measures the decrease in threshold to induce a withdrawal response to a mechanical stimulus (hyperalgesia, one of the characteristics of CIPN). To assess cisplatin-induced numbness, the adhesive removal test (ART) was used. The time it took for the mouse to have a behavioral response to the patch (i.e. shaking or attempted removal) was recorded as a measure of sensory deficit or numbness. To determine if behavioral changes were due to altered general activity or motor function, the locomotor activity (LMA) test and the rotarod test was used. For LMA mice were placed in an open-field testing cage and movement was measured for 5 minutes. For the rotarod, mice were trained for two days and then tested on the rotarod (with increasing speeds) for 5 minutes. Time on the rotarod was recorded.

[3] = test system: GFAP; assay: GFAP immunofluorescence of lumbar spinal cord dorsal horn (astrocyte activation); format: in vivo, mice; conditions: two rounds of cisplatin, then 3 doses of 10 mg/kg
Text: For quantification of astrocyte and microglia activation, lumbar spinal cords were collected on day 22. This collection day was after completion of cisplatin treatment and 3 injections of compound 001. […] Spinal cords were processed and stained with antibodies specific for GFAP and Iba-1. Images were captured under blinded conditions from the lumbar dorsal horn using a Leica SPE confocal microscope (Leica Microsystems, Buffalo Grove, Ill.).
For assessing astrocyte activation, paraformaldehyde fixed frozen 6 μm sections of lumbar spinal cord (L1-L6) were incubated with an antibody against glial fibrillary acidic protein (GFAP) (Rabbit; Abcam, Cambridge, Mass.) followed by Alexa-594-goat anti-rabbit IgG (Life Technologies, Carlsbad, Calif.) as described (Zhang H, et al. Evidence that spinal astrocytes but not microglia contribute to the pathogenesis of Paclitaxel-induced painful neuropathy. J. Pain, 2012; 13(3):293-303). Images were captured using a Leica SPE confocal microscope (Leica Microsystems, Buffalo Grove, Ill.). GFAP staining intensity was quantified using Image J software for percent positive GFAP staining in which intensity thresholds were maintained between samples. All immunofluorescence analysis were done by an experimenter blinded to the treatment groups.

[4] = test system: acetylated α-tubulin; assay: Western blot of acetylated α-tubulin in tibial nerves; format: in vivo; conditions: saline+compound and cisplatin+compound treated mice, 11 doses
Experimental: Tibial nerves retrieved from the XF24 assay plate were used for western blot analysis of levels of acetylated α-tubulin and mitochondrial proteins cytochrome c oxidase subunit IV (Cox IV), succinate dehydrogenase complex subunit A (SDHA) and voltage-dependent anion channel (VDAC). Tissues were homogenized in RIPA buffer (50 mM Tris-HCl, pH 7.5, 500 mM NaCl, 2.5 mM MgCl2, 1% NP-40, 10% glycerol) containing proteinase inhibitors by sonication and 10 μg of protein was separated by SDS/PAGE and transferred to PVDF membrane for immunoblot analyses. The membranes were blocked with 5% non-fat dry milk in PBST (phosphate-buffered saline containing 0.1% Tween 20) and probed with primary antibodies recognizing acetylated lysine (Rabbit monoclonal; Abcam, Cambridge, United Kingdom), α-tubulin (Rabbit polyclonal; Cell Signaling Technology, Danvers, Mass.), Cox IV (Mouse monoclonal; Life Technologies, Carlsbad, Calif.), SDHA (Rabbit polyclonal; Cell Signaling Technology, Danvers, Mass.) and VDAC (Rabbit polyclonal; Cell Signaling Technology, Danvers, Mass.) followed by HRP-conjugated anti-mouse, anti-rabbit, or anti-β-actin antibodies (Jackson Laboratory, Bar Harbor, Me.). […] The images were acquired using ImageQuant LAS 4000 (GE Healthcare Life Sciences, Little Chalfont, United Kingdom) and densitometrically analyzed using Image J software.

[5] = test system: IENF density; assay: Intra-epidermal nerve fiber (IENF) density in hind paw biopsies; format: in vivo, mice
Text: For quantification of IENFs, biopsies from the plantar surface of the hind paws were collected after 3 doses or 11 doses of compound 001 or vehicle and processed as described previously (Qi-Liang Mao-Ying A K, et al. The anti-diabetic drug metformin protects against chemotherapy-induced peripheral neuropathy in a mouse model. Clinical Cancer Research. 2014); Krukowski K, et al. Prevention of chemotherapy-induced peripheral neuropathy by the small-molecule inhibitor pifithrin-mu. Pain. 2015; 156(11):2184-92). In brief, biopsies were fixed in Zamboni's fixative, cryoprotected in 20% sucrose and then frozen in Optimal Cutting Temperature compound (Sakura Finetek USA, Inc., Torrance, Calif.). 25-μm frozen sections were incubated with antibodies against the pan neuronal marker PGP9.5 (Rabbit; AbD Serotec, Oxford, United Kingdom) and Collagen IV (Goat; Southern Biotech, Birmingham, Ala.) followed by Alexa-594 donkey anti-rabbit (Life Technologies, Carlsbad, Calif.) and Alexa-488 donkey anti-goat (Invitrogen, Grand Island, N.Y.). Three randomly chosen sections from each mouse were imaged and quantified under a Leica SPE confocal microscope (Leica Microsystems, Buffalo Grove, Ill.). Nerve fibers that crossed the collagen-stained dermal/epidermal junction into the epidermis were counted and IENF density was determined as the total number of fibers/length of epidermis (IENFs/mm).

With `O=C(NO)c1cnc(NC2(c3ccccc3)CCC(F)(F)CC2)nc1` [compound 001] the “time to behavioral response to adhesive patch (numbness)” value [1] was “normalized the response time in this test”, the “motor function (rotarod)” value [2] was “no effect” and the “GFAP expression in dorsal horn of spinal cord” value [3] was “normalized GFAP expression to levels of saline-treated animals”. The “α-tubulin acetylation in tibial nerves” value [4] was “increased α-tubulin acetylation”, the “IENF density, prolonged regimen” value ([5]; 2 cycles of cisplatin and 11 doses of compound) was “completely reversed the cisplatin-induced loss of IENFs” and the “IENF density, short-term treatment” value ([5]; cisplatin-treated mice, short-term treatment (3 doses)) was “did not have any effect on IENF density”.

Source: patent US11013740B2, “Histone deacetylase 6 selective inhibitors for the treatment of cisplatin-induced peripheral neuropathy” (REGENACY PHARMACEUTICALS, LLC, priority 2015, dated 2021)
